Reference: patent US20080146576A1, “N-(1-Phthalazin-1-ylpiperidin-4-yl)amides as EP2 receptor modulators” (priority 2006, published 2008)
Where two headings read alike, the source gives them in different places.

Tests used:
[1] = test system: cumulus-oocyte complexes; test: Cumulus expansion assay in vitro; type: cell-based, mice; conditions: competing with PGE2
Protocol: Folliculogenesis is induced in immature female mice (strain: CD1 (ICR) from Charles River) at an age of 14-18 days by a single dose (intraperitoneally) of 10 I.U. of PMSG (Pregnant Mare Serum Gonadotropin; Sigma G-4877, Batch 68H0909). 47-50 hours after the injection, the ovaries are removed and the cumulus-oocyte complexes are removed. The cumulus complex is not yet expanded at this stage.
The cumulus-oocyte complexes are then incubated with prostaglandin E2 (PGE2) (1 μM), vehicle control (ethanol) or test substances for 20-24 hours. Medium: alpha-MEM medium with 0.1 mM IBMX, pyruvates (0.23 mM), glutamines (2 mM), pen/strep (100 IU/ml pen. and 100 μg/ml strep.) and HSA (8 mg/ml). Cumulus expansion is then established through the division into four stages (according to Vanderhyden et al. Dev Biol. 1990 August; 140(2):307-317).

[2] = molecular target: T1, human prostaglandin E2 (subtype EP2) receptor (Homo sapiens, UniProt P43116); test: cAMP antagonism assay (HTRF cAMP, PGE2-stimulated cells); type: cell-based
T1 construct: host or cells: cells on a cell culture plate
T1 sequence (P43116 whole entry): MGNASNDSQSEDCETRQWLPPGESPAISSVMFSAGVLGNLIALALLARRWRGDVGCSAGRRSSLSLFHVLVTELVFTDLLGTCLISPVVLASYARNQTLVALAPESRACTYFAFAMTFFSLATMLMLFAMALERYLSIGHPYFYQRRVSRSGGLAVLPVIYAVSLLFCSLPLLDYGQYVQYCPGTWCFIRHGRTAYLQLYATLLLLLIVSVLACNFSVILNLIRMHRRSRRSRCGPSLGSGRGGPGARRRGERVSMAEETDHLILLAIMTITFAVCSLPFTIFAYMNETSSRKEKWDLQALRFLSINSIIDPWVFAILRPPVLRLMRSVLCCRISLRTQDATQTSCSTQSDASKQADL
Protocol: (§1) The binding of PGE2 to the EP2 subtype of the human PGE2 receptor induces activation of membrane-associated adenylate cyclases and leads to the formation of cAMP. In the presence of the phosphodiesterase inhibitor IBMX, cAMP which has accumulated due to this stimulation and been released by cell lysis is employed in a competitive detection method. In this assay, the cAMP in the lysate competes with cAMP-XL665 for binding of an Eu cryptate-labeled anti-cAMP antibody.
(§2) The two signals are measured in a suitable measuring instrument with a time lag, i.e. after the background fluorescence has declined.
(§3) The substance solutions (0.75 μl) containing 30% DMSO are introduced into an assay plate and dissolved in 16 μl of a KRSB+IBMX stimulation solution (1× Krebs-Ringer Bicarbonate Buffer; Sigma-Aldrich # K-4002; including 750 μM 3-isobutyl-1-methylxanthine Sigma-Aldrich # I-7018), and then 15 μl, thereof are transferred into a media-free cell culture plate which has been washed with KRSB shortly beforehand.
After preincubation at room temperature (RT) for 30 minutes, 5 μl of a 4×PGE2 solution (11 nM) are added, and incubation is carried out in the presence of the agonist at RT for a further 60 min (volume: ˜20 μl) before the reaction is then stopped by adding 5 μl of lysis buffer and incubated at RT for a further 20 min (volume: ˜25 μl). The cell lysate is then transferred into a measuring plate and measured in accordance with the manufacturer's information (cyclic AMP kit Cisbio International #62AMPPEC).

[3] = molecular target: T1, human prostaglandin E2 (subtype EP2) receptor; test: cAMP agonism assay (HTRF cAMP); type: cell-based
Protocol: as §1, §2
as §3, with “μl” for “μl,”
After incubation at room temperature (RT; volume: ˜15 μl) for 60 minutes, the reaction is then stopped by adding 5 μl of lysis buffer and incubated at RT for a further 20 min (volume: ˜20 μl). The cell lysate is then transferred into a measuring plate and measured in accordance with the manufacturer's information (cyclic AMP kit Cisbio International #62AMPPEC).

[4] = cAMP assay in presence of PGE2, read-out: Antagonism [IC50
[5] = cAMP assay, no PGE2 added, read-out: Agonism [ED50

SMILES | IC50 [2, 4] | EC50 [3, 5] | IC50 ([2]; read-out: IC50 in the antagonism test) | EC50 ([3]; read-out: EC50 in the cellular agonism test) | suppression of cumulus expansion ([1]; at a concentration of 100-200 μM) | suppression of cumulus expansion ([1]; at one tenth of the concentration (of 100-200 μM))
CC(C)Oc1ccc2c(=O)c3cc(C(=O)O)ccc3oc2c1 [AH 6809, reference compound] | – | – | – | – | about 20% | –
Cc1nnc(N2CCC(NC(=O)c3cccc(Cl)c3Cl)CC2)c2cc(Br)ccc12 [Example 3, N-[1-(7-Bromo-4-methyl-phthalazin-1-yl)-piperidin-4-yl]-2,3-dichloro-benzamide] | 700 nM | > 19000 nM | – | – | – | –

Further lines, with some results ahead:

IC50 [2, 4] | EC50 [3, 5] | IC50 ([2]; read-out: IC50 in the antagonism test) | EC50 ([3]; read-out: EC50 in the cellular agonism test) | SMILES | suppression of cumulus expansion ([1]; at a concentration of 100-200 μM) | suppression of cumulus expansion ([1]; at one tenth of the concentration (of 100-200 μM))
300 nM | > 19000 nM | – | – | O=C(NC1CCN(c2nncc3ccc(Br)cc23)CC1)c1cccc(Cl)c1Cl [Example 1, N-[1-(7-Bromo-phthalazin-1-yl)-piperidin-4-yl]-2,3-dichloro-benzamide] | – | –
– | > 19000 nM | 200 nM | > 19000 nM | O=C(NC1CCN(c2nncc3cc(Br)ccc23)CC1)c1cccc(Cl)c1Cl [Example 2, N-[1-(6-Bromo-phthalazin-1-yl)-piperidin-4-yl]-2,3-dichloro-benzamide] | – | 35%
500 nM | > 19000 nM | – | – | Cc1nnc(N2CCC(NC(=O)c3cccc(Cl)c3Cl)CC2)c2ccc(Br)cc12 [Example 4, N-[1-(6-Bromo-4-methyl-phthalazin-1-yl)-piperidin-4-yl]-2,3-dichloro-benzamide] | – | –
